# System: erythrocytes of human peripheral whole blood
# Assay: hemolysis assay
# Format: cell-based
# Conditions: photograph of the microplate before absorbance reading
# Procedure: The hemolysis assay is a required biocompatibility test for all blood-contacting devices. […] The hemolysis assay protocol we used was adapted from the one used by Bae and coworkers (Bae, I.-H., Park, I.-K., Park, D. S., Lee, H. and Jeong, M. H. 2012. Journal of Materials Science: Materials in Medicine 23 (5): 1259-1269.) as detailed below.
# Coated and bare CoCr disks were placed in the wells of a 96-well plate and sterilized by a ten minute incubation in 70° ethanol. The disks were rinsed several times in water prior to a final wash in physiological saline solution (0.9% NaCl). […]
# Disk-free wells were used as negative controls and 1% Triton X-100 (which causes the lysis of most erythrocytes through the dissolution of their plasma cell membrane) was added in blood-containing positive control wells. […] Absorbance was measured at 540 nm in a plate reader spectrophotometer (Infinite 200 PRO, TECAN). 540 nm corresponds to the absorbance peak of free hemoglobin, which is released by hemolysis from the erythrocytes. The value of the absorbance at 540 nm is therefore directly proportional to the extent of hemolysis caused by the sample disks in the experimental wells. […]
# For each experiment, these observations were quantified by absorbance reading at 540 nm, and the measurements were normalized using the values obtained with the positive and negative controls, according to the following formula: […]
substance,measurement,value
Triton X-100,macroscopic colour of platelet-poor plasma (hemolysis),effective hemolysis
